US8314123B2, “5, 6, or 7-substituted -3-(hetero) arylisoquinolinamine derivatives and therapeutic use thereof” (Rexahn Pharmaceuticals, Inc., priority 2006, dated 2012)
Like-named read-outs stand apart in the source and are kept apart here.

Key:
[1] = system: HCT15 human colon carcinoma xenografts; assay: Ex vivo xenograft study of nude mice; format: in vivo; conditions: 10 mg/kg/day intraperitoneal, three times per week; for % Inhibition of HCT-15 human colorectal cancer in mice at 29 days: day 10 to day 29, nude mice
Experimental: In order to observe the inhibition of growth of tumor in an animal model, an ex vivo xenograft study of nude mice was conducted utilizing Compound 13. Paclitaxel-resistant HCT15 cell suspension (1×10^6 cells in 0.2 ml of RPMI) was injected subcutaneously into the right flank of six-week-old female athymic mice (BALB/c nu/nu) on day 0. A sufficient number of mice were injected with HCT15 cell suspension so that tumors in a volume range as narrow as possible were selected for the trial on the day of treatment initiation. Animals with tumors in the proper size range were assigned to various treatment groups. Palcitaxel was used as a positive control. Compound 13 and paclitaxel were dissolved in 5 Cremophor and 5% ethanol in PBS and solvent alone served as vehicle control. All study medications (vehicle control, paclitaxel: 10 mg/kg/day, Compound 13: 10 mg/kg/day) were given by intraperitoneal injections three times per week starting from day 10 and ending on day 29 after inoculation of HCT15 cells. To quantify tumor growth, three perpendicular diameters of the tumors were measured with calipers every 3-5 days, and the body weight of the mice was monitored for toxicity. The tumor volume was calculated using the formula: tumor volume (mm^3)=(width)×(length)×(height)×π/6.

[2] = system: MDA-MB-231 (breast); assay: In vitro cell proliferation assay (SRB), MDA-MB-231; format: cell-based; conditions: Homo sapiens, SRB method, 96 hours, read-out: Inhibition of cell growth (IC50, μM) MDA-MB-231
Experimental: (§1) Cancer cell lines to determine the effect of 5, 6, or 7-substituted-3-(hetero)arylisoquinolinamine compounds were obtained from the following sources: Human MDA-MB-231 (breast), PC3 (prostate), HCT-15 (colon), HCT116 (colon), OVCAR-3 (ovary), Caki-1 (kidney), PANC-1 (pancreas), SNB-19 (glioblastoma) and SK-MEL-28 (melanoma) from the American Type Culture Collection (ATCC) (Manassas, Va.). PC3, OVCAR-3, SK-MEL-28 and SNB-19 were grown in RPMI1640 medium (Invitrogen, Carlsbad, Calif.) supplemented with 10% fetal bovine serum (“FBS”), 1 mM sodium pyruvate, 10 mM HEPES and 100 U/ml penicillin and 100 μg/ml streptomycin (“P/S”). MDA-MB-231, Caki-1, HCT-15 (colon) and PANC-1 cells were maintained in Dulbecco's modified Eagle's medium (“DMEM”, Invitrogen) supplemented with 10% FBS, P/S and 10 mM HEPES. HCT116 cells were maintained in DMEM supplemented with 10% FBS, P/S and 10 mM HEPES for in vitro cell proliferation assay and in RPMI1640 medium supplemented with 10% FBS, 1 mM sodium pyruvate, 10 mM HEPES and P/S for in vitro cell cycle analysis. All cells were incubated at 37° C. under humidified 5% CO2.
(§2) The growth inhibition of the 5, 6, or 7-substituted-3-(hetero)arylisoquinolinamine derivatives against a variety of human tumor cells was evaluated to study the relative importance of particular substituent groups on the compounds. The 5, 6, or 7-substituted-3-(hetero)arylisoquinolinamine derivatives, prepared as described above, were tested with DMSO as a control.
(§3) The growth inhibition assay of representative 5, 6, or 7-substituted-3-(hetero)arylisoquinolinamine derivatives against human tumor cell lines was performed using the Sulforhodamine B (“SRB”) method (Skehan et al., J. National Cancer Institute, 82: 1107-1112 (1990)). Briefly, exponentially growing tumor cells were seeded into a 96-well plate at a density of 2-3×10^3 cells/well and treated with 5, 6, or 7-substituted-3-(hetero)arylisoquinolinamine compounds the next day. Triplicate wells were used for each treatment. The cells were incubated with the various compounds for 96 hours at 37° C. in a humidified 5% CO2 atmosphere. After 96-hour incubation, cells were fixed with 10% trichloroacetic acid (“TCA”), incubated for 1 hour at 4° C., and washed 3 times with tap water. Subsequently, cells were stained with 0.4% sulforhodamine B in 1% acetic acid for 30 minutes, washed 4 times with 1% acetic acid, and air-dried again. After 5 minutes agitation in 10 mM Tris solution, the absorbance of each well was measured at 530 nm using Benchmark Plus Microplate reader (Bio-Rad Laboratories, Hercules, Calif.).
(§4) To translate the OD530 values into the number of live cells in each well, the OD530 values were compared to those on standard OD530-versus-cell number curves generated for each cell line. The percent survival was calculated using the formula: % Survival=live cell number [test]/live cell number [control]×100
(§5) The IC50 values were calculated by non-linear regression analysis.

[3] = system: PC3 (prostate); assay: In vitro cell proliferation assay (SRB), PC3; format: cell-based; conditions: Homo sapiens; SRB method, 96 hours; read-out: Inhibition of cell growth (IC50, μM) PC3
Experimental: as §1, §2, §3, §4, §5

[4] = system: PANC-1 (pancreas); assay: In vitro cell proliferation assay (SRB), PANC-1; format: cell-based; conditions: Homo sapiens, SRB method, 96 hours, read-out: Inhibition of cell growth (IC50, μM) PANC-1
Experimental: as §1, §2, §3, §4, §5

[5] = system: OVCAR-3 (ovary); assay: In vitro cell proliferation assay (SRB), OVCAR3; format: cell-based; conditions: Homo sapiens, SRB method, 96 hours, read-out: Inhibition of cell growth (IC50, μM) OVCAR3
Experimental: as §1, §2, §3, §4, §5

[6] = system: SNB-19 (glioblastoma); assay: In vitro cell proliferation assay (SRB), SNB19; format: cell-based; conditions: Homo sapiens, SRB method, 96 hours, read-out: Inhibition of cell growth (IC50, μM) SNB19
Experimental: as §1, §2, §3, §4, §5

[7] = system: Caki-1 (kidney); assay: In vitro cell proliferation assay (SRB), Caki-1; format: cell-based; conditions: Homo sapiens, SRB method, 96 hours, read-out: Inhibition of cell growth (IC50, μM) Caki-1
Experimental: as §1, §2, §3, §4, §5

[8] = system: HCT116 (colon); assay: In vitro cell proliferation assay (SRB), HCT116; format: cell-based; conditions: Homo sapiens, HCT-116
Experimental: as §1, §2, §3, §4, §5

[9] = system: paclitaxel-resistant HCT-15 colorectal cancer cells; assay: In vitro antitumor effects against paclitaxel-resistant HCT-15 cells; format: cell-based, Human; conditions: for IC50: Homo sapiens, paclitaxel-resistant HCT-15, Table 5, read-out: Inhibition of cell growth, IC50 (μM) HCT-15; for antitumor activity compared with paclitaxel: paclitaxel-resistant HCT-15 colorectal cancer cells
Experimental: as §1, §3, §4, §5
Compound 13 and 14 were tested in colon cancer cells and their antitumor activities were compared with paclitaxel (Taxol®).

[10] = system: SK-MEL-28 (melanoma); assay: In vitro cell proliferation assay (SRB), SK-MEL-28; format: cell-based; conditions: Homo sapiens, SRB method, 96 hours, read-out: Inhibition of cell growth (IC50, μM) SK-MEL-28
Experimental: as §1, §2, §3, §4, §5

[11] = system: human cancer cell lines; assay: Growth inhibition against the panel of human tumor cell lines (SRB), overall statements; format: cell-based; conditions: Table 3 cell lines
Experimental: as §1, §2, §3, §4, §5
Using QSAR and medicinal chemistry techniques, a large number of compounds, including the compounds shown in Table 1-2 above, were synthesized. The synthesized compounds were screened against at least four cancer cell lines, PANC-1, MDA-MB-231, HCT116 and Caki-1, at approximately 1 μM concentration. Compounds showing activity in at least one of these cell lines were selected for further screening. From these compounds, thirty compounds were selected for further evaluation as broad-spectrum anti-proliferative agents as shown in the following Table 3.

[12] = system: HCT116 cells; assay: In vitro cell cycle analysis (PI staining); format: cell-based, Human; conditions: HCT116, 0.3 uM, 12 hours; for % Cells in S: DMSO control 20.5; for % Cells in G1: DMSO control 39.4; for % Cells in G2/M: DMSO control 40.1
Experimental: as §1
This assay was used to determine the ability of 5, 6, or 7-substituted-3-(hetero)arylisoquinolinamine compounds to arrest cells at a specific phase during cell cycle. The day before drug treatment, HCT116 cells were plated at 50-70% saturation in a 10 cm dish in RPMI1640 medium with 10% FBS and then incubated overnight in a humidified 37° C. incubator with 5% CO2. The following day RPMI1640 medium (with 10% FBS) carrying the appropriate concentration of test compound solubilized in DMSO was added to the dishes. No compound control treatment was also included (0.25% DMSO). The cells were then incubated for 12 hours and were harvested by centrifugation at 7,000 rpm for 5 minutes. Cell pellets were resuspended in 0.2 ml of PBS containing 0.1% glucose and 2% FBS. Subsequently, 5 ml ice-cold 70% ethanol was added dropwise with shaking and the treated cells were stored at −20° C. at least 30 minutes. Cells were centrifuged at 2,000 rpm for 5 minutes and washed once with 1 ml PBS with 0.1% glucose and 2% FBS. After removal of the supernatant, cells were resuspended in 0.5 ml of 70 μM propium iodide (PI) solution containing 0.1% Triton X-100, 40 mM sodium citrate, pH 7.4. RNase was added at 50 μg/ml final concentration and cells were incubated at 37° C. for 30 minutes. PI stained cells were analyzed by Guava PCA-AFP instrument using its cell cycle software program (Guava Technologies, Hayward, Calif.) and expressed as percentage of cells in G1, S and G2/M phases of the cell cycle.

[13] = SRB method, 96 hours, Table 3, read-out: Inhibition of cell growth (IC50, μM) HCT116
[14] = Table 5, read-out: Inhibition of cell growth, IC50 (μM) HCT116

Row | SMILES | IC50 [2] [µM] | IC50 [3] [µM] | IC50 [4] [µM] | IC50 [5] [µM] | IC50 [6] [µM] | IC50 [8, 13] [µM] | IC50 [10] [µM] | IC50 [7] [µM] | IC50 [8, 14] [µM] | IC50 [9] [µM] | activity in growth inhibition of human cancer cell compared to Compound 23 [11] | other results
1 | COc1cccc(-c2cc3ccc(N(C)C)cc3c(N)n2)c1.Cl [Compound 13, 3-(3-methoxyphenyl)-N^7,N^7-dimethylisoquinoline-1,7-diamine hydrochloride] | 0.021 | 0.019 | 0.019 | 0.014 | 0.032 | 0.017 | 0.032 | 0.022 | 0.017 | 0.015 | equal or better activity | % Inhibition of HCT-15 human colorectal cancer in mice at 29 days [1]: 69.2%; Tolerability of treatment ([1]; nude mice): well tolerated without deaths; body weight fluctuations ([1]; nude mice): no more than 1 g; antitumor activity compared with paclitaxel [9]: higher antitumor activities than that of paclitaxel; times more active than compound 23 in tested cell lines [11]: five to thirteen times more active
2 | Cc1cccc(-c2cc3ccc(N(C)C)cc3c(N)n2)c1.Cl [Compound 14, N^7,N^7-Dimethyl-3-m-tolylisoquinoline-1,7-diamine hydrochloride] | 0.021 | 0.024 | 0.018 | 0.016 | 0.028 | 0.023 | 0.032 | 0.023 | 0.023 | 0.021 | equal or better activity | % Cells in S [12]: 7.6%; % Cells in G1 [12]: 10.3%; % Cells in G2/M [12]: 82.1%; antitumor activity compared with paclitaxel [9]: higher antitumor activities than that of paclitaxel; times more active than compound 23 in tested cell lines [11]: five to thirteen times more active
3 | Cc1ccc2c(N)nc(-c3ccccc3C)cc2c1.Cl [Compound 23, 6-Methyl-3-o-tolylisoquinolin-1-amine hydrochloride salt] | 0.15 | 0.24 | 0.24 | 0.15 | 0.26 | 0.19 | 0.35 | 0.12 | – | – | – | melting point: 269.1 to 270.2 °C
4 | COc1cccc(-c2cc3cc(OC)c(OC)cc3c(N)n2)c1 [Compound 52, 6,7-Dimethoxy-3-(3-methoxyphenyl)isoquinolin-1-amine] | 0.14 | 0.18 | 0.19 | 0.074 | 0.22 | 0.16 | 0.23 | 0.17 | – | – | equal or better activity | –
5 | CC(=O)O[C@H]1C(=O)[C@@]2(C)[C@H]([C@H](OC(=O)c3ccccc3)[C@]3(O)C[C@H](OC(=O)[C@H](O)[C@@H](NC(=O)c4ccccc4)c4ccccc4)C(C)=C1C3(C)C)[C@]1(OC(C)=O)CO[C@@H]1C[C@@H]2O [Paclitaxel, paclitaxel, reference compound] | – | – | – | – | – | – | – | – | 0.002 | 0.14 | – | % Inhibition of HCT-15 human colorectal cancer in mice at 29 days [1]: 48.8%; loss of activity in HCT-15 cells when IC50 values compared in both colon cancer cells ([9]; HCT-15 versus HCT116): 70 fold

The next lines start with results.

Row | IC50 [2] [µM] | IC50 [3] [µM] | IC50 [4] [µM] | IC50 [5] [µM] | IC50 [6] [µM] | IC50 [8, 13] [µM] | IC50 [10] [µM] | SMILES | IC50 [7] [µM] | IC50 [8, 14] [µM] | IC50 [9] [µM] | activity in growth inhibition of human cancer cell compared to Compound 23 [11] | other results
6 | 0.051 | 0.12 | 0.079 | 0.075 | 0.12 | 0.074 | 0.12 | Cc1ccc2cc(-c3c(C)cccc3C)nc(N)c2c1 [Compound 43, 7-Methyl-3-(2,6-dimethylphenyl)isoquinolin-1-amine] | 0.048 | – | – | equal or better activity | % Cells in S [12]: 10.8%; % Cells in G1 [12]: 15.3%; % Cells in G2/M [12]: 73.9%
7 | 0.03 | 0.07 | 0.058 | 0.042 | 0.052 | 0.042 | 0.051 | COc1ccc(C)c(-c2cc3ccc(C)cc3c(N)n2)c1 [Compound 50, 3-(5-Methoxy-2-methylphenyl)-7-methyl-isoquinolin-1-amine] | 0.047 | – | – | equal or better activity | –
